Data taken from a melting point compilation (Tetko et al.; mined from patent text by program, amines drawn as free bases though some values may be those of a salt).

Row | Compound | melting point
1 | COc1ccc(/C=C(\C#N)c2ccc(N)cc2)cc1OC1CCCC1 | 82 to 84 °C
2 | CNC(=S)NS(=O)(=O)c1cc2c(cc1OC)OC(C)(C)C(NC(=O)c1cc(F)ccc1OC)C2 (stereo not given) | 222 °C
3 | CCNC(=O)NCCC1CCc2ccc(OC)cc21 (stereo not given) | 90 to 92 °C
4 | COc1cc(CC(C)=O)ccc1OCCCN1CCC(c2noc3cc(F)ccc23)CC1 | 118 to 119 °C
5 | Nc1cc(Cl)c([N+](=O)[O-])cc1OC(=O)c1ccccc1 | 199 to 201 °C
6 | CC12CCC3c4cc([N+](=O)[O-])c(OCc5ccccc5)cc4CCC3C1CCC2=O (stereo not given) | 234 to 235 °C
7 | COc1ccc(-n2ccc(O)n2)cc1 | 167 to 170 °C
8 | O=P1(c2ccc(Oc3ccccc3)cc2)c2ccccc2CN1c1ccccc1 (stereo not given) | 207 to 208 °C
9 | O=S1CCN(c2nc(N3CCNCC3)cc3ccc(Cl)cc23)CC1 | 209 to 211 °C
10 | O=C1c2c(O)cccc2C(C(=O)C2CCCCC2)c2cccc(O)c21 | 220 °C
11 | Fc1ccc(-c2ccccc2)c(F)c1 | 63 to 65 °C
12 | C=CCC(O)(C(=O)N[C@H]1CN2CCC1CC2)c1cccs1 (stereo not given in full) | 54.4 to 58.3 °C
13 | O=C(Oc1ccccc1)c1ccc(C(=O)Oc2ccccc2)c(C(=O)Oc2ccccc2)c1 | 156 to 158 °C
14 | CCc1cc(C(=O)c2ccccc2Cl)c(-n2c(CNC(=O)c3cc4ccccc4[nH]3)nnc2C(C)C)s1 | 209 to 211 °C
15 | CN1C(=O)c2cccnc2Nc2ncccc21 | 230 to 232 °C
16 | Cc1cn(C)c2c1N(C(=O)CN(C)C)c1ccccc1NC2=O | 219 to 220 °C

Row | Compound | melting point
17 | CC(=O)NCc1ccc(CN2CCN(c3ccccn3)CC2)cc1 | 100 to 101 °C
18 | O=C1NC(=O)C(Cc2ccc(OCCNc3ncccn3)cc2)S1 (stereo not given) | 173 °C
19 | CS(=O)(=O)N(Cc1cccnc1)c1ccccc1F | 120 °C
20 | CCOC(=O)c1csc(Br)n1 | 66 to 68 °C
21 | CC12CCC(=O)NC1CCc1cc(-c3cnc4ccccc4c3)ccc12 (single isomer, unassigned; (+)) | 265 to 266 °C
22 | COc1ccc(/C=C/C(=O)N2CC(CCl)c3c2cc([N+](=O)[O-])c2cc(S(=O)(=O)NCCO)ccc32)cc1 (stereo not given) | 250 to 251 °C
23 | O=C(Cc1ccc(Cl)c(Cl)c1)N(O)[C@H](CN1CCCC1)c1ccccc1 | 118 to 120 °C
24 | CN1CCN(c2ccc(S(=O)(=O)Oc3cccc([N+](=O)[O-])c3)cc2)C1=O | 167 to 169 °C
25 | N#Cc1cnn(Cc2ccccc2)c1 | 61 to 63 °C
26 | c1ccc(CN2CCc3[nH]c4ccc(Oc5ccccc5)cc4c3C2)cc1 | 102 °C
27 | Cn1c(Cl)cnc1CN1C(=O)C2(COc3cc4c(cc32)OCCO4)c2ccccc21 (stereo not given) | 91 to 95 °C
28 | CC(C)(C)c1cc(C(=O)OCc2ccc(C(=O)OCc3ccccc3)cc2)cc(C(C)(C)C)c1O | 110 to 111 °C
29 | CC1=C(C(=O)OC(C)(C)C)C(c2ccccc2I)C(C(=O)OC(C)(C)C)=C(C)N1 | 184 to 185 °C
30 | CCn1cc(C(=O)O)c(=O)c2cnc(N3CCN(Cc4ccc(N)cc4)CC3)nc21 | 198 to 201 °C
31 | CCCCNCc1cc(N)c(Cc2ccccc2)c(S(N)(=O)=O)c1 | 141 to 143 °C
32 | Cc1ccc(-n2cc(C(=O)O)c(=O)c3ccc(-c4ccncc4)cc32)cc1C | 301 to 303 °C

Further lines, results first:

Row | melting point | Compound
33 | 145 to 147 °C | NS(=O)(=O)c1cccc(C2OCCO2)c1
34 | 53 to 56 °C | Oc1c(CC2CCCCC2)ccc2ccccc12
35 | 234 to 236 °C | N#Cc1ccc(Nc2nc(Oc3c(F)cccc3F)ccc2[N+](=O)[O-])cc1
36 | 132 to 133 °C | O=[N+]([O-])c1ccc(-c2oncc2CCCO)cc1
37 | 199 to 200 °C | COc1ccc(-c2cc(=O)cc(N3CCOCC3)s2)cc1
38 | 168 to 170 °C | COc1cc(Nc2c(C#N)cnc3cc(-c4csc(CN5CCOCC5)c4)ccc23)c(Cl)cc1C
39 | 169 °C | O=C(O)CCCCc1cc2nc(Cl)ccc2n1S(=O)(=O)c1ccc2ncsc2c1
40 | 79 °C | CCCCCCCNC(=O)N(C)c1cccc(-c2ccc(C=C(C)C(=O)O)cc2)c1
41 | 178 to 180 °C | O=S(=O)(Nc1ncnc(OCCO)c1-c1cccc(Cl)c1)c1ccc(Cl)cc1
42 | 207 to 208 °C | CC(=O)Oc1ccc(C(=O)Nc2cc([N+](=O)[O-])ccc2C)cc1
43 | 235 °C | O=C(O)CSc1c(-c2cc(Cl)ccc2O)c2cc(C(F)(F)F)ccc2[nH]c1=O
44 | 124 °C | COC(=O)Oc1ccc(-c2ccc(=O)n(Cc3ccc(Cl)cc3F)c2)cc1
45 | 192 to 200 °C | Nc1ccc(C(=O)N2CCC=Cc3sccc32)c(Cl)c1
46 | 105 to 107 °C | Cc1nccn1-c1cccc(-n2cnc3cc(-c4ccoc4)ccc32)c1
47 | 200 to 201 °C | CC(C)(C)c1cc(-c2csc(CNC(=O)c3ccccc3)n2)cc(C(C)(C)C)c1O
48 | 98 to 99 °C | Cc1ccc([N+](=O)[O-])cc1C(=O)N(C)C
49 | 105 to 107 °C | COc1ccc(S(=O)(=O)CNC=O)cc1
50 | 174 °C | O=C(c1ccc2c(=O)nc(-c3ccccn3)sc2c1)N1CCCC1
